According to ChEMBL document CHEMBL5543162, “Discovery of a Novel Orally Bioavailable FLT3-PROTAC Degrader for Efficient Treatment of Acute Myeloid Leukemia and Overcoming Resistance of FLT3 Inhibitors” (J Med Chem, 2024):
The source made the active and inactive calls. No cut-off for these calls is given here.

Tests used:
[1] = Stability in mouse liver microsomes assessed as hepatic clearance; type: ADME, Microsome
[2] = system: Protein cereblon/Receptor-type tyrosine-protein kinase FLT3 (Homo sapiens), P36888+Q96SW2 [UNDEFINED MUTATION]; assay: PROTAC activity at CRBN/FLT3-ITD mutant in human MV4-11 cells assessed as protein degradation at 100 nM incubated for 24 hrs followed by compound washout measured upto 48 hrs by Western blot analysis; type: cell-based; details: time 72.0 hrs
[3] = Antiproliferative activity against human PBMC cells at 30 to 1000 nM incubated for 48 hrs by CCK8 assay; type: toxicity, cell-based; details: 1 µM, dose 30-1000 nM
BaF3 = assay: Antiproliferative activity against mouse Ba/F3 cells expressing FLT3-ITD D835V mutant incubated for 48 hrs by CCK8 assay; type: functional, cell-based; details: BaF3, 48 h
[4] = Toxicity in nu/nu mouse xenografted with human MV4-11 cells assessed as damage in liver at 1.25 to 10 mg/kg, po administered daily for 2 weeks by H and E staining based analysis; type: organism-based; details: in vivo, 336 h, dose 1.25-10 mg/kg

Chain of Protein cereblon/Receptor-type tyrosine-protein kinase FLT3 (Homo sapiens), P36888+Q96SW2 [UNDEFINED MUTATION] (P36888 whole entry, looked up, stated change not applied): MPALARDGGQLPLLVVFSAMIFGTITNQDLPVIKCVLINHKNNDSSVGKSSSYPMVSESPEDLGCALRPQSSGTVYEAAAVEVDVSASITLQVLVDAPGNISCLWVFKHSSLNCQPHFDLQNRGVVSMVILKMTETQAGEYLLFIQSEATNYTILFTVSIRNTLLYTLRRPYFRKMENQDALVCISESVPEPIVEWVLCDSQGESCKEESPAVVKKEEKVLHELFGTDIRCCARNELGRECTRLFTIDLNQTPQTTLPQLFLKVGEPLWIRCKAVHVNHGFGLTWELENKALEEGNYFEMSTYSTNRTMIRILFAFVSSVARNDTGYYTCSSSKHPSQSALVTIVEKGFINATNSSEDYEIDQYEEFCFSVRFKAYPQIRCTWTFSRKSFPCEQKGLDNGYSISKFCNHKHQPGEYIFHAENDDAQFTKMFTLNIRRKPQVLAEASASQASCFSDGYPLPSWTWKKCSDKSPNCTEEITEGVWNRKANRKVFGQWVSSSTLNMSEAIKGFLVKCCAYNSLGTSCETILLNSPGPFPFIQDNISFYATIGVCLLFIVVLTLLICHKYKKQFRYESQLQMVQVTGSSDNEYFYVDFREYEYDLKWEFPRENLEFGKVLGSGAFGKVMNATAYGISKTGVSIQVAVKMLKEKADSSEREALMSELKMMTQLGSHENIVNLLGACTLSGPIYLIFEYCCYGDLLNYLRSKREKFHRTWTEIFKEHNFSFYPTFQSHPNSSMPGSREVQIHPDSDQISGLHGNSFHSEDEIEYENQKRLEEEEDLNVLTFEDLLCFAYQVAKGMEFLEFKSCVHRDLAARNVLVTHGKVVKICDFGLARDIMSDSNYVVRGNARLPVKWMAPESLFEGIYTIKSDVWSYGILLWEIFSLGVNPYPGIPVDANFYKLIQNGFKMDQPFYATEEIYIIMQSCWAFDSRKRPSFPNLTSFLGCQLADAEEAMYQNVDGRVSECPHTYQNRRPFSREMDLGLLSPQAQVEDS
Chain of Protein cereblon/Receptor-type tyrosine-protein kinase FLT3 (Homo sapiens), P36888+Q96SW2 [UNDEFINED MUTATION] (Q96SW2 whole entry, looked up, stated change not applied): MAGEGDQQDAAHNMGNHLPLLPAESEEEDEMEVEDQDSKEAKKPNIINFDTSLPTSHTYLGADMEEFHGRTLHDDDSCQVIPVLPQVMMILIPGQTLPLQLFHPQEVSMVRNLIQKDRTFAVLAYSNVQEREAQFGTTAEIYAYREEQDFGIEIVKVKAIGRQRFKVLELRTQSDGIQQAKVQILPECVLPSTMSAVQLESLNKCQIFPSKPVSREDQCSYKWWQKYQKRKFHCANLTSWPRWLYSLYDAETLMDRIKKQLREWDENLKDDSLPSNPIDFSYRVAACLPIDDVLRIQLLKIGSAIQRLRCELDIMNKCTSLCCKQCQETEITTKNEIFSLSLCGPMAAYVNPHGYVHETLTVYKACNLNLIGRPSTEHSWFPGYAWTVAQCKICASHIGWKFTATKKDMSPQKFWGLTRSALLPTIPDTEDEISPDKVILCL

SMILES: Cc1c(NC(=O)CN2CCN(CC3CCN(c4ccc5c(c4)C(=O)N(C4CCC(=O)NC4=O)C5=O)CC3)CC2)c[nH]c1/C=C1\C(=O)Nc2ccc(F)cc21 (stereo not given)
- CLhep predicted [1]: 45.7 mL/min/kg
- Activity [2]: Active
- Activity [3]: Non-Toxic
- IC50 (BaF3): 45.1 nM
- Activity [4]: Non-Toxic
